The term Ki denotes the equilibrium dissociation constant of an inhibitor or competing ligand from its target.

The text below walks through data of patent US6080780A, “Use of nitroflavonoids for the treatment of anxiety” (University of Strathclyde, priority 1995, dated 2000).

Data set [1] deals with benzodiazepine (BDZ-R) receptor. Briefly: 3H-Flunitrazepam binding to extensively washed bovine cerebral cortical membranes. Particulars: read-out: Ki, inhibition of 3H-FNZ binding; bovine cerebral cortical membranes; 0.6 nM 3H-FNZ, 4° C., 60 min; n=3. The method, then: Non-specific nitration of the flavone nucleus yielded the two nitrated flavone (II) and (IIa). […] Briefly, ^3 H-FNZ binding was carried out as described by Levy de Stein, M., Medina, J. H., De Robertis E., Mol. Brain Res. 1985, 5, 9-15. In brief, for each assay, triplicate samples of the membranes, containing 0.2 to 0.4 mg protein were suspended in a final volume of 1 mL of 0.25 mM Tris-HCl buffer, pH 7.3. The incubation was carried out at 4° C. for 60 minutes with 0.6 nM ^3 -FNZ. To study the binding saturation, a range of 0.3 to 10 nM ^3 H-FNZ was used. Non-specific binding was determined in parallel incubations in the presence of 3 μM FNZ, and represented 5-15% of total. The assays were terminated by filtration under vacuum though Whatman GF/A glass-fiber filters, and three washes with 3 mL each of incubation medium. Filters were dried and counted after the addition of 5 mL of 2,5-diphenyloxazole/xylene as scintillation fluid. Bovine cerebral cortical membranes were treated substantially following the method of Medina, J. H., De Robertis, E. J., J. Neurochem. 1985, 44, 1340-1345.

Data set [2] has as its target central benzodiazepine receptors (BDZ-Rs). Put plainly: 3H-FNZ binding to rat brain synaptosomal membranes (Section 3). Here is the method: In brief, for each assay, triplicate samples of the membranes, containing 0.2 to 0.4 mg protein were suspended in a final volume of 1 mL of 0.25 mM Tris--HCl buffer, pH 7.3. The incubation was carried out at 4° C. for 60 min with 0.6 nM ^3 H--FNZ. to study the binding saturation, a range of 0.3 to 10 nM ^3 H--FNZ was used. […] The assays were terminated by filtration under vacuum through Whatman GF/A glass-fiber filters, and three washes with 3 mL each of incubation medium. Filters were dried and counted after the addition of 5 mL of 2,5-diphenyloxazole/xylene as scintillation fluid.
The binding of ^3 H--FNZ was carried out as for (i) above.

The target of data set [3] is central benzodiazepine receptor. Briefly: [3H]-FNZ binding to crude synaptosomal membranes from rat CNS regions. Further details: species or system rat (Wistar). The method, then: (§1) Adult male Wistar rats weighing 250 g were used for biochemical experiments. Adult male Swiss male weighing 25-30 g were used for pharmacological assays except for inhibitory avoidance and tail flick tests were done in rats. Animals were housed in a controlled environment, with free access to food and water and maintained on a 12 h/12 h day/night cycle.
Displacement curves were performed using [^3 ]-FNZ or [^3 H]-zolpidem ([^3 H]-ZOLP) as radioligands in washed crude synaptosomal membranes from rat cerebral cortex, cerebellum, hippocampus, striatum or spinal cord. Membrane preparations were carried out according to Medina et al. (1990). Briefly, brains were rapidly dissected out on ice and the different structures were homogenized in 10 volumes of 0.32 M sucrose and centrifuged at 900×g for 10 min. The resulting supernatant was centrifuged at 100,000×g for 30 min and the pellet washed twice in 25 mM Tris HCl buffer pH 7.4 at 100,000×g for 30 min, and stored at -20° C. until used.
For [^3 H]-FNZ (84 Ci/mmol, NEN) displacement curves, different concentrations of DNF (0.3 nM to 1 μM) were added to 0.3 mg membrane protein suspended in 1 ml of 25 mM Tris HCl buffer in presence of 0.6 nM of the radioligand. Protein determination was carried out by using the method of Lowry et al. (1951). Nonspecific binding (<5%) was determined in parallel incubations with 10 μM FNZ (Hoffmann-La Roche). The incubation was carried out at 4° C. for 2 h. The assays were determined by filtration under vacuum through Whatman GF/A glass fiber filters, and two washes with 3 ml each of incubation medium. Filters were dried and counted after the addition of 5 ml 2,5-diphenyl-oxazole (PPO)-xylene as scintillation fluid.

Data set [4] concerns cholinergic-muscarinic receptors. The format is binding. Particulars: 10 μM.
The test system of the next data set is serotonin 1A receptors. Put plainly: 3H-8-OH-DPAT binding, compound (IV). Conditions: 10 μM.
The test system of another data set is AMPA-glutamate receptors. Briefly: 3H-AMPA binding, compound (IV). Conditions: 10 μM.
The next data set relates to GABAA receptors. Put plainly: 3H-muscimol binding, compound (IV). Particulars: 10 μM.
For data set [5], the system named is mice. Briefly: Elevated plus-maze, compound (IV). The format is in vivo, male Swiss mice. Conditions: i.p., 0.1 mg/kg, preliminary. Here is the method: The animals used in the pharmacological test were male Swiss mice from our breeding stock, weighting 28-35 g. They were placed in groups of ten with free access to water and food, and maintained on 12 h/12 h day/night cycle. The elevated plus-maze set-up consisted of a maze of two open arms, 25×5 cm, crossed by two closed arms of the same dimensions, with free access to all arms from the crossing point. The closed arms had walls 35 cm high all around. The maze was suspended 50 cm from the room floor. Mice were placed on the central part of the cross facing an open arm. The number of entries and the time spend going into open and closed arms were counted during 5 min. A selective increase in the parameters corresponding to open arms revels an anxiolytic effect. The total exploratory activity (number of entries in both arms) was also determined according to the method of Pellow, S. J. et al. Neurosci. Meth. 1986, 14, 149; Lister, R. G. Psychopharmacology 1987, 92, 180).

Data set [6] has as its system mice. Put plainly: Elevated plus maze test in mice (Section 2). The data set is classed as in vivo, male Swiss mice. Conditions: mice. Here is the method: as §1
An Opto-varimex® apparatus was used according to Viola et al. (1994). The apparatus discriminates between total and ambulatory activities. An increase in the number of transitions through the beams reflects augmented locomotor activity. In this and all following tests in mice, animals were i.p. injected with the vehicle, or with DNF 20 min before the beginning of the tests. In each session, control mice were tested in parallel with those animals receiving drug treatment.
The test was performed in the same session immediately after the locomotor activity measurement (Viola et al., 1994; Wolfman et al., 1994). […] A series of experiments with the injection of the selective central benzodiazepine receptor antagonist Ro 15-1788 (File and Pellow, 1986) was also carried out.

Data set [7] concerns mice. Briefly: Pentylenetetrazole (PTZ)-induced seizures. The format is in vivo. Here is the method:
The effects of DNF on pentylenetetrazole (PTZ)--induced convulsions were evaluated according to Medina et al., (1990) with slight modifications. PTZ (200 mg/kg) was administered i.p. to mice 15 min after injection of drug or vehicle. The number of mice presenting clonic convulsions was determined.
Data are expressed as the percentage of mice presenting clonic or tonic-clonic seizures. ^3 number of animals per group.

In data set [8] the test system is mice. Put plainly: Elevated plus-maze test in mice (Section 1, incl. Table 1). The format is in vivo, male Swiss mice. Conditions: Mus musculus, ip, read-out: minimum dose necessary to produce similar anxiolytic effects. The method, then:
Performance of mice on the elevated plus-maze test was used to measure anxiolytic actions in rodents, following i.p. administration of vehicle or compound (II).
The animals used in the pharmacological test were male Swiss mice from breeding stock, weighing 28-35 g. They were placed n groups of ten with free access to water and food, and maintained on 12 h/12 h day/night cycle. In all the tests the mice were i.p. injected with VEH or a solution of the drug, 15 minutes before the assay.
The elevated plus-maze set-up consisted of a maze of two open arms, 25×5 cm, crossed by two closed arms of the same dimensions, with free access to all arms from the crossing point. The closed arms had walls 35 cm high all around. The maze was suspended 50 cm from the room floor. Mice were placed on the central part of the cross facing an open arm. The number of entries and the time spent going into open and closed arms were counted during 5 minutes. […] The total exploratory activity (number of entries in both arms) was also determined.

For data set [9], the system named is mice. Put plainly: Horizontal wire test in mice. Conditions: mice, i.p. The data set is classed as in vivo, male Swiss mice. Here is the method:
as §1
This test was carried out as previously described (Viola et al., 1994; Wolfman et al., 1994; Viola et al., 1995). The test took place after two trials, performed at 5 min intervals. A myorelaxant drug will impair mice to grasp the wire (Bonetti et al., 1982). The effect of DNF )1 mg/kg) on DZ-induced myorelaxation was also determined.

Data set [10] relates to mice. Put plainly: Holeboard test in mice. The data set is classed as in vivo, male Swiss mice. Conditions: mice, 1 mg/kg; vehicle=8.5±1.2, p<0.001. Here is the method:
as §1
The test was performed according to Viola et al. (1994) and Wolfman et al. (1994). The number of head dips and the time spent head dipping were counted during 5 min.

[11] abbreviates: rat cerebral cortex, read-out: Ki, 3H-FNZ binding.

SMILES strings stand for the structures. Where two headings read alike, the source gives them in different places.

For the compound `O=c1cc(-c2ccc([N+](=O)[O-])cc2)oc2ccc([N+](=O)[O-])cc12` [(IIa), 6,4'-Dinitroflavone], the Ki in data set [1] is 17 ± 5 µM.
For the compound `O=c1cc(-c2cccc([N+](=O)[O-])c2)oc2ccc(F)cc12` [(IX), 6-Fluoro-3'-nitroflavone], the inhibition constant Ki in data set [2] (setting [11]) was 170 nM.
Consider `O=c1cc(-c2cccc([N+](=O)[O-])c2)oc2ccccc12` [(VI), 3'-nitroflavone], for which the inhibition constant Ki in [2] (setting [11]) is 250 nM.
For `O=c1cc(-c2cccc([N+](=O)[O-])c2)oc2ccc(Cl)cc12` [(VIII), 6-Chloro-3'-nitroflavone], the inhibition constant Ki in [2] (setting [11]) is 8 nM.
For the compound `Cc1nnc2ccc(-c3cccc(C(F)(F)F)c3)nn12` [CL 218,872, reference compound], the Ki is 10 nM in [3] (cortical membranes, high affinity site, read-out: high affinity Ki value) and 1200 nM in data set [3] (cortical membranes, low affinity site, read-out: low affinity Ki value).
On to `O=c1cc(-c2ccccc2[N+](=O)[O-])oc2ccc(Br)cc12` [Compound (III), 6-bromo-2'-nitroflavone], for which the inhibitory constant (Ki) in data set [2] (setting [11]) amounted to 208 nM.
On to `O=c1cc(-c2cccc([N+](=O)[O-])c2)oc2ccc(Br)cc12` [Compound (IV), 6-bromo-3'-nitroflavone], for which the “displacement of 3H-QNB binding” value in [4] was “does not displace”. The Ki came to 3.6 ± 0.1 nM in data set [2] (cerebellum, n=4, read-out: Ki SEM, 3H-FNZ binding); 1.2 nM in data set [2] (cerebral cortex, first (high affinity) population of sites, n=6, read-out: Ki SEM, 3H-FNZ binding); 15.5 nM in [2] (cerebral cortex, second population of sites, n=6, read-out: Ki SEM, 3H-FNZ binding); 9.6 ± 0.6 nM in data set [2] (hippocampus, n=2, read-out: Ki SEM, 3H-FNZ binding); 220 ± 1 nM in data set [2] (setting [11]); 12.7 ± 0.5 nM in data set [2] (spinal cord, n=3, read-out: Ki SEM, 3H-FNZ binding). In data set [2] (striatum, n=3, read-out: Ki SEM, 3H-FNZ binding), the inhibition constant (Ki) is 9.8 ± 1.6 nM. Also, in data set [2] (cerebral cortical membranes, data not shown), the “Scatchard analysis of 3H-FNZ saturation curves” value was “competitive ligand for the BDZ-R”. Moreover, in data set [2] (ratio), the “affinity in spinal cord vs highest value in cerebral cortex” value is on record as 10 times lower. Moreover, the “potency for displacement of 3H-FNZ, type II BDZ-R regions vs cerebellum” value in [2] (ratio) is given as 3-4 times lower. In addition, the “displacement of 3H-8-OH-DPAT binding” value in the data set with serotonin 1A receptors was “does not displace”. Also, the “displacement of 3H-AMPA binding” value in the data set on AMPA-glutamate receptors is “does not displace”. The “displacement of [3H]-muscimol binding” value in the data set with GABAA receptors is listed as “does not displace”. In addition, in the data set on mice [5], the “percentage of entries in the open arms” value was “increasing both the percentage of entries in the open arms”. In addition, the “time spent in the open arms” value with mice [5] is “increasing both the percentage of entries in the open arms and the time spent in these arms”.
For `O=c1cc(-c2ccc([N+](=O)[O-])cc2)oc2ccc(Br)cc12` [Compound (V), 6-bromo-4'-nitroflavone], the Ki in [2] (setting [11]) came out at 220 nM.
Regarding `CN1C(=O)CN=C(c2ccccc2)c2cc(Cl)ccc21` [Diazepam, reference compound], in the data set on mice [6], the “dose needed to increase open arm entries relative to DNF” value is on record as 10-100 times higher. The “percentage of open arm entries” value in the data set with mice [6] (0.3 mg/kg, vehicle=22.9±2.0%, p<0.05) is recorded as 35.0±4.5%. In addition, in data set [3] (all the brain regions studied, read-out: Ki, [3H]-FNZ binding), the inhibitory constant (Ki) was around 7 nM. For the same compound, the “% of convulsing mice” value stood at 33.3% in the data set with mice [7] (DZ 0.3 mg/kg, n=6, p<0.001 (VEH + PTZ 96)); 42% in the data set on mice [7] (DZ 1.0 mg/kg, n=12, p<0.001); 0% in the data set on mice [7] (DZ 3.0 mg/kg, n=9, p<0.001). In addition, the “anticonvulsant activity vs PTZ” value in the data set on mice [7] (mice, 0.3-3 mg/kg, p<0.001, PTZ 200 mg/kg) is “showed anticonvulsant activity”. The minimal effective dose with mice [8] is 0.03 mg/kg. The myorelaxant effect result in the data set on mice [9] (1 mg/kg) is “marked myorelaxant effect”. Also, the “animals showing myorelaxant effect” value in the data set with mice [9] (DZ 1 mg/kg) is given as 8 animals out of 10. Also, in the data set with mice [10], the head dips is 1.2±0.5.
